Experimental data reported in ChEMBL document CHEMBL5726897, “Pyridopyrimidinones and methods of use thereof” (2019).

Molecular target: Glutamate NMDA receptor; GRIN1/GRIN2A (Homo sapiens, UniProt Q05586+Q12879)
Test: TBD: TBD
Type: protein-complex assay

Glutamate NMDA receptor; GRIN1/GRIN2A, sequence (Q12879 whole entry, other chains not shown): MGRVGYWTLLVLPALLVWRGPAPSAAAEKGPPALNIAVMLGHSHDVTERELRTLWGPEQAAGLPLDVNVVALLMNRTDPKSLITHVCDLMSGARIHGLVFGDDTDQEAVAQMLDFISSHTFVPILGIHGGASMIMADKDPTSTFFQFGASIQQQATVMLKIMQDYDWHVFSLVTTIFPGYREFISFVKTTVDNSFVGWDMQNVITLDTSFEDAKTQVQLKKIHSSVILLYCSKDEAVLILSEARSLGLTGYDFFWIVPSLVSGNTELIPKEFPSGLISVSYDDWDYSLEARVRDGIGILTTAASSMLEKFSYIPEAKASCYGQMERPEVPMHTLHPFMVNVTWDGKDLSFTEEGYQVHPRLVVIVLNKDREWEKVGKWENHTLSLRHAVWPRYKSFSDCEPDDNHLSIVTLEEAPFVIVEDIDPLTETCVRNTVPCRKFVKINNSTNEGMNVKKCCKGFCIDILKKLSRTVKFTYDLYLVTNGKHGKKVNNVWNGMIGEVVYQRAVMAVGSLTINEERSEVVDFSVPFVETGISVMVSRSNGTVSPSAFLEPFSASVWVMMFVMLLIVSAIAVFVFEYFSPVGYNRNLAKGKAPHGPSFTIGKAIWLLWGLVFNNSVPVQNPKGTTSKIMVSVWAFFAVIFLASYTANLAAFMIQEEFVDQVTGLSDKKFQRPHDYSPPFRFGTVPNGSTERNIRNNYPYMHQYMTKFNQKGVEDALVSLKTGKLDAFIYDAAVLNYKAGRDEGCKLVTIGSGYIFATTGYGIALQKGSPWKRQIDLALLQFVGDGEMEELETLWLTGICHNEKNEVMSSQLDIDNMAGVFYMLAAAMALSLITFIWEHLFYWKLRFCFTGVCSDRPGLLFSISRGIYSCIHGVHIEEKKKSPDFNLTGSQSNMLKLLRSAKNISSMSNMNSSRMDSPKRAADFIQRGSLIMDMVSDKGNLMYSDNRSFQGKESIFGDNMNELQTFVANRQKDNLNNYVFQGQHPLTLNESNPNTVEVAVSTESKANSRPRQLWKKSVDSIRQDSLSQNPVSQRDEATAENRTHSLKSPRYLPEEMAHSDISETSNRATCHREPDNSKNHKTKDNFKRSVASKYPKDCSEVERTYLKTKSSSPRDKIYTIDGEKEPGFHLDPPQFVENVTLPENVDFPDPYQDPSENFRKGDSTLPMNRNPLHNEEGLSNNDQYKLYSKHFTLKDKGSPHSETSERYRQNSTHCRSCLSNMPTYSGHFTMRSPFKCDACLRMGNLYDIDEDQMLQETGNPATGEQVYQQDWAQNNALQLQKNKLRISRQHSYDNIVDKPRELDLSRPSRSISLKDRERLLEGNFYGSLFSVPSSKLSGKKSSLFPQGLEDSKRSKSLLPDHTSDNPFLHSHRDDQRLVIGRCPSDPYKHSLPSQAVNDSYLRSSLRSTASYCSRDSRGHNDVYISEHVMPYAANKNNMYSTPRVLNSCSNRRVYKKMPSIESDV

EC50: 4.4 µM
SMILES: CCN(Cc1cc(=O)n2c(OC)cccc2n1)c1ccc(F)cc1
